The values below come from ChEMBL document CHEMBL1201862, “PubChem BioAssay data set” (2004).

In general, GI50 refers to the concentration that inhibits growth by half.

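Cells were grown in 96-well plates and exposed to each compound for 48 hours at five concentrations; endpoints were interpolated linearly between bracketing concentrations, or set to the highest concentration if not reached. GI50 is the concentration that inhibits growth by half.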 Activity calls are given as the source filed them. Cut-off read from the data, not from the text of the source: active = GI50 up to about 1.1 µM and inactive = higher. Some results are limits rather than exact numbers.

What all share (assay): DTP human tumour cell line panel, 48 h
Assay [1] relates to M14.
Assay [2] has as its system CCRF-CEM.
For assay [3], the system named is Malme-3M.
The test system of assay [4] is RPMI-8226.
Assay [5] concerns K562.
Assay [6] concerns MOLT-4.
In assay [7] the test system is KM12.
Assay [8] deals with SF-295.
The test system of assay [9] is NCI-H522.
The test system of assay [10] is HCT-116.
For assay [11], the system named is OVCAR-4.
The subject of assay [12] is UACC-257.
Assay [13] relates to ACHN.
Assay [14] has as its system U-251.
In assay [15] the test system is 786-0.
Assay [16] relates to SR.
Assay [17] has as its system HCT-15.
Assay [18] deals with TK-10.
For assay [19], the system named is CAKI-1.

As for `N/N=c1\c2ccccc2c2ccc3c4ccccc4/c(=N\N)c3c12`, the GI50 in [1], in [2], in assay [3], in assay [4], in assay [5] and in assay [6] was > 100 µM (inactive) throughout. Also, the GI50 in [7], in [8], in [9], in [10], in assay [11] and in assay [12] was > 100 µM (inactive) each time. Also, the GI50 was > 100 µM (inactive) in [13]; > 100 µM (inactive) in [14]; > 100 µM (inactive) in [15]; 25.7 µM (inactive) in [16]; above 100 µM in assay [17].

Regarding `CO/C(=N\N=C\c1ccc(Cl)cc1)c1ccncc1`, the GI50 in assay [1], in assay [2], in assay [3], in assay [4], in assay [5] and in assay [6] was > 100 µM (inactive) in each case. Besides, the GI50 in [7], in [8], in assay [9], in assay [10], in assay [11] and in assay [12] was > 100 µM (inactive) throughout. Further, the GI50 is > 100 µM (inactive) in assay [13]; > 100 µM (inactive) in assay [14]; > 100 µM (inactive) in [18]; > 100 µM (inactive) in assay [16]; above 100 µM in assay [17]; > 100 µM (inactive) in assay [19].

Regarding `O=c1n(Cc2ccccc2)c2ccccc2n1CC1CS1` (stereo unspecified), the GI50 in [1], in assay [2], in assay [3], in assay [4], in assay [5] and in assay [6] was > 100 µM (inactive) each time. Also, the GI50 in assay [7], in assay [8], in assay [9], in assay [10], in assay [11] and in assay [13] was > 100 µM (inactive) throughout. Besides, the GI50 was > 100 µM (inactive) in assay [18], > 100 µM (inactive) in assay [16], above 100 µM in assay [17] and > 100 µM (inactive) in [19].

Consider `CC(=O)OCc1nnn2c1C(OC(C)=O)CC2` (stereo unspecified), for which the GI50 in assay [1], in assay [3], in assay [4], in assay [5], in [6] and in assay [7] was > 100 µM (inactive) throughout. Moreover, the GI50 in assay [8], in assay [9], in [10], in assay [11], in assay [12] and in assay [13] was > 100 µM (inactive) in each case. Further, the GI50 is > 100 µM (inactive) in [14]; > 100 µM (inactive) in assay [15]; > 100 µM (inactive) in assay [18]; > 100 µM (inactive) in [16]; above 100 µM in [17]; > 100 µM (inactive) in assay [19].

As to `Cc1ccc2c(c1-c1ccccc1)C(=O)OC2`, the GI50 is > 100 µM (inactive) in assay [1]; > 100 µM (inactive) in assay [2]; > 100 µM (inactive) in assay [3]; > 100 µM (inactive) in assay [4]; 56.1 µM (inactive) in [5]; 94.4 µM (inactive) in assay [6]. For the same compound, the GI50 in [7], in [9], in [10], in assay [11], in assay [12] and in [13] was > 100 µM (inactive) throughout. Moreover, the GI50 in assay [14] was > 100 µM (inactive); in assay [15] it was > 100 µM (inactive); in assay [18], > 100 µM (inactive); in [16] it was 90.6 µM (inactive); in [17], above 100 µM; in assay [19] it was > 100 µM (inactive).

On to `CN(C)c1ccc(C=C2C(=O)OC(C)(C)OC2=O)cc1Br`, for which the GI50 in assay [1] was > 100 µM (inactive); in assay [2] it was > 100 µM (inactive); in [3], > 100 µM (inactive); in [4], > 100 µM (inactive); in assay [5], 82.6 µM (inactive); in assay [6] it was > 100 µM (inactive). Further, the GI50 in [7] is > 100 µM (inactive); in assay [8], > 100 µM (inactive); in [9], > 100 µM (inactive); in assay [10], 48.9 µM (inactive); in [11], > 100 µM (inactive); in [12] it was > 100 µM (inactive). The GI50 in assay [13] is > 100 µM (inactive); in [14], > 100 µM (inactive); in [15], > 100 µM (inactive); in assay [18], > 100 µM (inactive); in assay [16] it was 59.6 µM (inactive); in assay [19], > 100 µM (inactive).

For the compound `O=C1NCCCC12CCCNC2=O`, the GI50 in assay [1], in assay [2], in [3], in [4], in assay [5] and in assay [6] was > 100 µM (inactive) throughout. Further, the GI50 in assay [7], in assay [8], in assay [9], in assay [10], in assay [12] and in assay [13] was > 100 µM (inactive) throughout. Also, the GI50 was > 100 µM (inactive) in assay [14], > 100 µM (inactive) in assay [15], > 100 µM (inactive) in assay [16] and above 100 µM in assay [17].

Turning to `Cc1ccc(N2C(=O)N(c3ccc(C)cc3)C3(SC=NN3C)C2=O)cc1` (stereo unspecified), the GI50 was 69.8 µM (inactive) in assay [1]; 40.6 µM (inactive) in assay [2]; 95.5 µM (inactive) in assay [3]; 49.2 µM (inactive) in assay [4]; 40.6 µM (inactive) in assay [5]; 63.2 µM (inactive) in assay [6]. The GI50 in assay [7] was 47.6 µM (inactive); in assay [8] it was 47.8 µM (inactive); in assay [9] it was 37.8 µM (inactive); in assay [10], 46.6 µM (inactive); in [11], 95.5 µM (inactive); in assay [12], 38.6 µM (inactive). Besides, the GI50 in [13] is 65.6 µM (inactive); in assay [14] it was > 100 µM (inactive); in assay [15] it was > 100 µM (inactive); in [18] it was 66.4 µM (inactive); in assay [16], 58.3 µM (inactive); in assay [19], 83.2 µM (inactive).

`C#CCOCn1cnc2ncnc(Cl)c21`: the GI50 in [1], in assay [2], in assay [3], in assay [4], in assay [5] and in [6] was > 100 µM (inactive) throughout. Moreover, the GI50 in [7], in [8], in assay [9], in assay [10], in [11] and in [12] was > 100 µM (inactive) throughout. The GI50 in assay [13], in assay [14], in assay [15], in [18], in assay [16] and in assay [19] was > 100 µM (inactive) in each case.

On to `CN1C=C(C(N)=O)Cc2ccsc21`, for which the GI50 in assay [1], in assay [2], in assay [3], in [4], in assay [5] and in assay [6] was > 100 µM (inactive) each time. In addition, the GI50 in [7], in [8], in assay [9], in assay [10], in assay [11] and in assay [12] was > 100 µM (inactive) each time. The GI50 in assay [13] is > 100 µM (inactive); in assay [14], > 100 µM (inactive); in assay [15], > 100 µM (inactive); in assay [16] it was > 100 µM (inactive); in assay [17] it was above 100 µM; in assay [19] it was > 100 µM (inactive).

As for `Cc1ccc(/C=N/n2c(Cc3ccccc3)n[nH]c2=O)cc1`, the GI50 in assay [1], in [2], in assay [3], in assay [4], in assay [5] and in [6] was > 100 µM (inactive) each time. The GI50 in assay [7] is > 100 µM (inactive); in assay [8] it was 35.9 µM (inactive); in assay [9] it was > 100 µM (inactive); in assay [10], > 100 µM (inactive); in assay [11], > 100 µM (inactive); in assay [12], > 100 µM (inactive). Also, the GI50 was > 100 µM (inactive) in [13]; 80.9 µM (inactive) in assay [15]; > 100 µM (inactive) in [18]; > 100 µM (inactive) in assay [16]; above 100 µM in assay [17]; 28.6 µM (inactive) in assay [19].

In the case of `CC(C)(C1=NC(C(C)(C)C)CO1)C1=N[C@@H](C(C)(C)C)CO1` (stereo partly specified), the GI50 in assay [1], in [2], in assay [3], in assay [4], in assay [5] and in assay [6] was > 100 µM (inactive) each time. The GI50 in assay [7], in [8], in assay [9], in assay [10], in [11] and in assay [12] was > 100 µM (inactive) throughout. Moreover, the GI50 was > 100 µM (inactive) in assay [13]; > 100 µM (inactive) in [14]; > 100 µM (inactive) in [15]; > 100 µM (inactive) in assay [18]; > 100 µM (inactive) in assay [16]; above 100 µM in assay [17].
